Assay results from patent US9957252B2, “Metalloenzyme inhibitor compounds as fungicides” (Dow AgroSciences LLC, priority 2014, dated 2018).
Where two headings read alike, the source gives them in different places.

Columns and labels:
Assay type in all cases: in vivo, Mycosphaerella graminicola on wheat plants (variety Yuma)
[1] = system: standard laboratory SEPTTR isolate (SI SEPTTR); Mycosphaerella graminicola; Anamorph: Septoria tritici; experiment: Leaf blotch of wheat fungicidal activity, Type A assay (technical grade in acetone/water with Triton X-100, booth sprayer), standard laboratory isolate; details: Zymoseptoria tritici, 24 h, 1 Day Protectant, wheat seedlings (Yuma), read-out: Disease control, SI SEPTTR Type A Assay (50 ppm) 1DP
Protocol: (§1) Evaluation of Fungicidal Activity: Leaf Blotch of Wheat (Mycosphaerella graminicola; Anamorph: Septoria tritici; Bayer code SEPTTR):
(§2) For Type A assays, technical grades of the experimental fungicides in Table 4 below were dissolved in acetone, and then mixed with nine volumes of water containing 110 ppm Triton X-100. The fungicide solutions were applied onto wheat seedlings using an automated booth sprayer. For Type B assays, emulsifiable concentrate (EC) formulations of technical grades of experimental fungicides in Table 4 below were prepared at 10% (w/v), and then mixed with 150 volumes of 0.1% Trycol 5941. The fungicide solutions were applied onto wheat seedlings using an automated track sprayer at 200 L/ha. All sprayed plants were allowed to air dry prior to further handling.
(§3) Wheat plants (variety Yuma) were grown from seed in a greenhouse in 50% mineral soil/50% soil-less Metro mix until the first leaf was fully emerged, with 7-10 seedlings per pot. Prior to or after application of experimental fungicides, plants were inoculated either with spores of a standard laboratory SEPTTR isolate (SI SEPTTR) or with spores from a SEPTTR field isolate collected from Wellsbourne, England in 2012 (FI SEPTTR). After inoculation, the plants were kept for 3 days at 20° C. in 100% relative humidity (one day in a dark dew chamber followed by two days in a lighted dew chamber). Plants were then transferred to a 20° C. greenhouse for disease development. When disease symptoms were fully expressed on untreated plants, infection levels on treated plants were assessed on a scale of 0 to 100 percent disease severity. Percent disease control was calculated using the ratio of disease severity on treated plants relative to untreated plants.

[2] = system: standard laboratory SEPTTR isolate (SI SEPTTR); Mycosphaerella graminicola; Anamorph: Septoria tritici; experiment: Leaf blotch of wheat fungicidal activity, Type B assay (10% EC formulation in 0.1% Trycol 5941, track sprayer 200 L/ha), standard laboratory isolate; details: Zymoseptoria tritici, 72 h, wheat seedlings (Yuma)
Protocol: as §1, §2, §3

[3] = Leaf blotch of wheat fungicidal activity, Type B assay (10% EC formulation in 0.1% Trycol 5941, track sprayer 200 L/ha), field isolate; details: Zymoseptoria tritici, 72 h, field isolate (Wellsbourne, England 2012), wheat seedlings (Yuma)
Protocol: as §1, §2, §3

[4] = 3 Day Curative, read-out: Disease control, SI SEPTTR Type B Assay (100 g/ha) 3DC
[5] = 3 Day Protectant, read-out: Disease control, SI SEPTTR Type B Assay (100 g/ha) 3DP
[6] = 3 Day Curative, read-out: Disease control, FI SEPTTR Type B Assay (100 g/ha) 3DC
[7] = 3 Day Protectant, read-out: Disease control, FI SEPTTR Type B Assay (100 g/ha) 3DP

SMILES: CC(C)(C)C(O)(c1ccc(-c2ccc(C#N)cc2)cc1)c1cncnc1 (stereo not drawn) [Compound 3]
- pest or weed control at 50 ppm [1]: 80 to 100%
- pest or weed control at 100 g/ha [2, 4]: 60 to 79%
- pest or weed control at 100 g/ha [2, 5]: 60 to 79%
- pest or weed control at 100 g/ha [3, 6]: 80 to 100%
- pest or weed control at 100 g/ha [3, 7]: 60 to 79%

SMILES: CC(C)(C)C(O)(c1cncnc1)c1ccc(-c2ccc(OCC(F)(F)F)cc2)cc1F (stereo not drawn) [Compound 26]
- pest or weed control at 50 ppm [1]: 80 to 100%
- pest or weed control at 100 g/ha [2, 4]: 80 to 100%
- pest or weed control at 100 g/ha [2, 5]: 80 to 100%
- pest or weed control at 100 g/ha [3, 6]: 80 to 100%
- pest or weed control at 100 g/ha [3, 7]: 80 to 100%

SMILES: CC(C)(C)C(O)(c1cncnc1)c1ccc(-c2ccc(C(F)(F)F)cc2F)cc1Cl (stereo not drawn) [Compound 30]
- pest or weed control at 50 ppm [1]: 80 to 100%
- pest or weed control at 100 g/ha [2, 4]: 80 to 100%
- pest or weed control at 100 g/ha [2, 5]: 80 to 100%
- pest or weed control at 100 g/ha [3, 6]: 80 to 100%
- pest or weed control at 100 g/ha [3, 7]: 80 to 100%
